Experiments:
Conditions in all cases: 48 h
[1] = system: SEM cells; assay: cell viability relative to DMSO control; higher = less cytotoxic
Procedure, shortened: (§1)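 In 1536-well plates, 5 μl of leukemia cells were seeded per well: 500 cells/well for NOMO1 or SEM and 1000 cells/well for P12-Ichikawa. Each line had first been adapted for at least four passages in each medium. Library compounds in DMSO were pin-dosed at 11 threefold concentrations between 47 μM and 0.79 nM, and CellTiter-Glo One luminescence was read after 48 h at 37°C. Viability is a per-plate percentage relative to DMSO wells, with cell-free wells as background.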

[2] = system: NOMO1; assay: as above
Procedure, shortened: as §1

[3] = system: P12-Ichikawa; assay: as above
Procedure, shortened: as §1

[4] = system: SEM cells; assay: AUC of viability dose-response curve (% viability x log10 dose units); higher = less sensitive
Procedure, shortened: (§2)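 Library compounds in DMSO were applied for 48 h at 37°C at 11 threefold doses (47 μM to 0.79 nM) to medium-adapted leukemia cells in 1536-well plates holding 500 or 1000 cells/well. Luminescence from CellTiter-Glo One was normalised plate by plate against DMSO and cell-free wells. Area under the curve came from trapezoidal integration of a log-logistic fit, after scaling curves that rose above full viability and discarding those that failed quality control. The fit had four parameters and used log10 doses.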

[5] = system: NOMO1; assay: as above
Procedure, shortened: as §2

[6] = system: P12-Ichikawa; assay: as above
Procedure, shortened: as §2

O=C(c1ccc(F)c(F)c1Nc1ccc(I)cc1F)N1CC(O)([C@@H]2CCCCN2)C1
cell viability [%]
Conditions | [1] | [2] | [3]
HPLM + 10% dialyzed FBS, 0.000781 µM | 75.2 | 96.3 | 93.9
HPLM + 10% dialyzed FBS, 0.00234 µM | 92.2 | 91.9 | 102
HPLM + 10% dialyzed FBS, 0.00702 µM | 98.2 | 97.4 | 102
HPLM + 10% dialyzed FBS, 0.0211 µM | 99.8 | 108 | 111
HPLM + 10% dialyzed FBS, 0.0632 µM | 85.4 | 90.9 | 109
HPLM + 10% dialyzed FBS, 0.19 µM | 83.6 | 70.1 | 108
HPLM + 10% dialyzed FBS, 0.569 µM | 105 | 56.4 | 100
HPLM + 10% dialyzed FBS, 1.71 µM | 97 | 41.8 | 99
HPLM + 10% dialyzed FBS, 5.12 µM | 69.2 | 15.1 | 93.6
HPLM + 10% dialyzed FBS, 15.4 µM | 71.4 | 13.3 | 12.6
HPLM + 10% dialyzed FBS, 46.1 µM | 60.8 | 14.3 | 11.1
RPMI 5 mM glucose + 10% FBS, 0.000781 µM | 98.8 | 91.4 | 97.3
RPMI 5 mM glucose + 10% FBS, 0.00234 µM | 88.6 | 99.9 | 102
RPMI 5 mM glucose + 10% FBS, 0.00702 µM | 100 | 98.2 | 112
RPMI 5 mM glucose + 10% FBS, 0.0211 µM | 104 | 93.4 | 97.8
RPMI 5 mM glucose + 10% FBS, 0.0632 µM | 98.1 | 92.5 | 101
RPMI 5 mM glucose + 10% FBS, 0.19 µM | 100 | 74.1 | 104
RPMI 5 mM glucose + 10% FBS, 0.569 µM | 92.5 | 61.8 | 87.5
RPMI 5 mM glucose + 10% FBS, 1.71 µM | 99.1 | 29.1 | 93
RPMI 5 mM glucose + 10% FBS, 5.12 µM | 77.8 | 8.07 | 82.7
RPMI 5 mM glucose + 10% FBS, 15.4 µM | 71.6 | 7.33 | 12.8
RPMI 5 mM glucose + 10% FBS, 46.1 µM | 55.1 | 5.28 | 7.93
RPMI 5 mM glucose + 10% dialyzed FBS, 0.000781 µM | 82.8 | 89.4 | 88.6
RPMI 5 mM glucose + 10% dialyzed FBS, 0.00234 µM | 96.3 | 99 | 114
RPMI 5 mM glucose + 10% dialyzed FBS, 0.00702 µM | 97.4 | 93.9 | 115
RPMI 5 mM glucose + 10% dialyzed FBS, 0.0211 µM | 111 | 102 | 116
RPMI 5 mM glucose + 10% dialyzed FBS, 0.0632 µM | 104 | 100 | 111
RPMI 5 mM glucose + 10% dialyzed FBS, 0.19 µM | 96.6 | 69.7 | 108
RPMI 5 mM glucose + 10% dialyzed FBS, 0.569 µM | 86.2 | 58.6 | 114
RPMI 5 mM glucose + 10% dialyzed FBS, 1.71 µM | 92.7 | 44.1 | 105
RPMI 5 mM glucose + 10% dialyzed FBS, 5.12 µM | 68.5 | 10.1 | 96.2
RPMI 5 mM glucose + 10% dialyzed FBS, 15.4 µM | 76.9 | 10.2 | 36.8
RPMI 5 mM glucose + 10% dialyzed FBS, 46.1 µM | 60.1 | 11.6 | 14.8

AUC of viability dose-response curve
Conditions | [4] | [5] | [6]
HPLM + 10% dialyzed FBS | 410 | 305 | 410
RPMI 5 mM glucose + 10% FBS | 434 | 292 | 403
RPMI 5 mM glucose + 10% dialyzed FBS | 425 | 304 | 419

— the supplement of paper PMC11451515
